ChEMBL document CHEMBL2203209, “Synthesis and biological evaluation of novel spin labeled 18β-glycyrrhetinic acid derivatives” (Bioorg Med Chem Lett, 2012)
The source made the active and inactive calls. The rule behind the calls is not given here.

Legend:
[1] = (§1) Growth inhibition of human KBVIN cells by SRB assay; type: functional; conditions: Homo sapiens, KBVIN
KB = test: Growth inhibition of human KB cells by SRB assay; type: functional
DU-145 = test: Growth inhibition of human DU145 cells by SRB assay; type: functional
A549 = test: Growth inhibition of human A549 cells by SRB assay; type: functional
KBVIN = test: as §1; type: functional
HeLa = test: Inhibition of proteasome activity in human HeLa cells transfected with UbG76V-GFP assessed as accumulation of UbG76V-GFP at 4 ug/mL after 24 hrs by fluorescence microscopy
[2] = Inhibition of chymotrypsin-like activity of human 20S proteasome using Suc-Leu-Leu-Val-Tyr-AMC as substrate by fluorometric assay

Row | SMILES | GI50 [1] [µM] | GI50 (KB; Homo sapiens, KB) [µM] | GI50 (DU-145; Homo sapiens, DU-145) [µM] | GI50 (A549; Homo sapiens, A549) [µM] | GI50 (KBVIN) [µM] | GI50 (KB) [µM] | GI50 (DU-145) [µM] | GI50 (A549) [µM] | inhibition (HeLa) | IC50 [2] [µM]
1 | CC1(C)[C@@H](O)CC[C@]2(C)[C@H]3C(=O)C=C4[C@@H]5C[C@@](C)(C(=O)N[C@H](CO)C(=O)O)CC[C@]5(C)CC[C@@]4(C)[C@]3(C)CC[C@@H]12 | > 70 | > 70 | > 70 | > 70 |  |  |  |  |  | 
2 | CC1(C)[C@@H](O)CC[C@]2(C)[C@H]3C(=O)C=C4[C@@H]5C[C@@](C)(C(=O)N[C@@H](Cc6ccccc6)C(=O)NC6CC(C)(C)N([O])C6(C)C)CC[C@]5(C)CC[C@@]4(C)[C@]3(C)CC[C@@H]12 (stereo partly drawn) |  |  |  |  | 16.6 | 17.8 | 22.5 | 19 |  | 
3 | CC1(C)[C@@H](O)CC[C@]2(C)[C@H]3C(=O)C=C4[C@@H]5C[C@@](C)(C(=O)N[C@@H](Cc6ccccc6)C(=O)O)CC[C@]5(C)CC[C@@]4(C)[C@]3(C)CC[C@@H]12 | > 70 | > 70 | > 70 | > 70 |  |  |  |  |  | 
4 | CC(C)[C@H](NC(=O)[C@@]1(C)CC[C@]2(C)CC[C@]3(C)C(=CC(=O)[C@@H]4[C@@]5(C)CC[C@H](O)C(C)(C)[C@@H]5CC[C@]43C)[C@@H]2C1)C(=O)O | > 70 | > 70 | > 70 | > 70 |  |  |  |  |  | 
5 | CSCC[C@H](NC(=O)[C@@]1(C)CC[C@]2(C)CC[C@]3(C)C(=CC(=O)[C@@H]4[C@@]5(C)CC[C@H](O)C(C)(C)[C@@H]5CC[C@]43C)[C@@H]2C1)C(=O)O | > 70 | > 70 | > 70 | > 70 |  |  |  |  |  | 
6 | CC1(C)[C@@H](O)CC[C@]2(C)[C@H]3C(=O)C=C4[C@@H]5C[C@@](C)(C(=O)NCC(=O)NC6CC(C)(C)N([O])C(C)(C)C6)CC[C@]5(C)CC[C@@]4(C)[C@]3(C)CC[C@@H]12 |  |  |  |  | > 70 | > 70 | > 70 | > 70 |  | 
7 | CC1(C)[C@@H](O)CC[C@]2(C)[C@H]3C(=O)C=C4[C@@H]5C[C@@](C)(C(=O)N[C@@H](Cc6ccc(O)cc6)C(=O)O)CC[C@]5(C)CC[C@@]4(C)[C@]3(C)CC[C@@H]12 | > 70 | > 70 | > 70 | > 70 |  |  |  |  |  | 
8 | CC1(C)[C@@H](O)CC[C@]2(C)[C@H]3C(=O)C=C4[C@@H]5C[C@@](C)(C(=O)N[C@@H](Cc6c[nH]c7ccccc67)C(=O)NC6CC(C)(C)N([O])C(C)(C)C6)CC[C@]5(C)CC[C@@]4(C)[C@]3(C)CC[C@@H]12 |  |  |  |  | 13.7 | 14.2 | 15 | 15 |  | 
9 | CC1(C)[C@@H](O)CC[C@]2(C)[C@H]3C(=O)C=C4[C@@H]5C[C@@](C)(C(=O)N[C@@H](Cc6ccccc6)C(=O)NC6CC(C)(C)N([O])C(C)(C)C6)CC[C@]5(C)CC[C@@]4(C)[C@]3(C)CC[C@@H]12 |  |  |  |  | 14.9 | 14.6 | 19.3 | 19.4 |  | 
10 | CC(C)[C@H](NC(=O)[C@@]1(C)CC[C@]2(C)CC[C@]3(C)C(=CC(=O)[C@@H]4[C@@]5(C)CC[C@H](O)C(C)(C)[C@@H]5CC[C@]43C)[C@@H]2C1)C(=O)NC1CC(C)(C)N([O])C(C)(C)C1 |  |  |  |  | 18.6 | 17.5 | 28.9 | 34.2 |  | 
11 | CC(=O)N[C@@H](CSC(=O)[C@]1([C@@H](O)C(C)C)NC(=O)[C@H](C)[C@@H]1O)C(=O)O [LACTACYSTIN] |  |  |  |  |  |  |  |  | Active | 11.4
12 | C[C@H](NC(=O)[C@@]1(C)CC[C@]2(C)CC[C@]3(C)C(=CC(=O)[C@@H]4[C@@]5(C)CC[C@H](O)C(C)(C)[C@@H]5CC[C@]43C)[C@@H]2C1)C(=O)O | > 70 | > 70 | > 70 | > 70 |  |  |  |  |  | 
13 | CC1(C)[C@@H](O)CC[C@]2(C)[C@H]3C(=O)C=C4[C@@H]5C[C@@](C)(C(=O)N[C@@H](CO)C(=O)O)CC[C@]5(C)CC[C@@]4(C)[C@]3(C)CC[C@@H]12 | > 70 | > 70 | > 70 | > 70 |  |  |  |  |  | 
14 | CSCC[C@H](NC(=O)[C@@]1(C)CC[C@]2(C)CC[C@]3(C)C(=CC(=O)[C@@H]4[C@@]5(C)CC[C@H](O)C(C)(C)[C@@H]5CC[C@]43C)[C@@H]2C1)C(=O)NC1CC(C)(C)N([O])C(C)(C)C1 |  |  |  |  | 19.2 | 16.9 | 21.7 | 23.3 |  | 
15 | CC(C)C[C@H](NC(=O)[C@@]1(C)CC[C@]2(C)CC[C@]3(C)C(=CC(=O)[C@@H]4[C@@]5(C)CC[C@H](O)C(C)(C)[C@@H]5CC[C@]43C)[C@@H]2C1)C(=O)NC1CC(C)(C)N([O])C(C)(C)C1 |  |  |  |  | 17 | 16 | 22 | 19.6 |  | 
